Assay results published in ChEMBL document CHEMBL5303573, “Mapping human microbiome drug metabolism by gut bacteria and their genes” (Nature, 2019).

Key:
[1] = bacteroides stercoris, 12 h, 2 µM
Description: The drug is tested on Bacteroides stercoris strain: ATCC43183 for biotransformation. The drug concentrations were measured before and after a 12-h incubation by liquid-chromatography-coupled mass spectrometry (LC–MS)

[2] = parabacteroides distasonis, 12 h, 2 µM
Description: The drug is tested on Parabacteroides distasonis strain: ATCC8503 for biotransformation. The drug concentrations were measured before and after a 12-h incubation by liquid-chromatography-coupled mass spectrometry (LC–MS)

[3] = The drug is tested on Anaerococcus hydrogenalis strain: DSM7454 for biotransformation. The drug concentrations were measured before and after a 12-h incubation by liquid-chromatography-coupled mass spectrometry (LC–MS); details: 2 µM
[4] = The drug is tested on Clostridium scindens strain: ATCC35704 for biotransformation. The drug concentrations were measured before and after a 12-h incubation by liquid-chromatography-coupled mass spectrometry (LC–MS); details: 2 µM
[5] = The drug is tested on Bacteroides vulgatus strain: ATCC8482 for biotransformation. The drug concentrations were measured before and after a 12-h incubation by liquid-chromatography-coupled mass spectrometry (LC–MS); details: phocaeicola vulgatus, 2 µM
[6] = bacteroides thetaiotaomicron, 12 h, 2 µM
Description: The drug is tested on Bacteroides thetaiotaomicron strain: VPI-5482 for biotransformation. The drug concentrations were measured before and after a 12-h incubation by liquid-chromatography-coupled mass spectrometry (LC–MS)

[7] = parabacteroides johnsonii, 12 h, 2 µM
Description: The drug is tested on Parabacteroides johnsonii strain: DSM18315 for biotransformation. The drug concentrations were measured before and after a 12-h incubation by liquid-chromatography-coupled mass spectrometry (LC–MS)

[8] = roseburia intestinalis, 12 h, 2 µM
Description: The drug is tested on Roseburia intestinalis strain: L1-82 for biotransformation. The drug concentrations were measured before and after a 12-h incubation by liquid-chromatography-coupled mass spectrometry (LC–MS)

[9] = The drug is tested on Bacteroides fragilis strain: HMW615 for biotransformation. The drug concentrations were measured before and after a 12-h incubation by liquid-chromatography-coupled mass spectrometry (LC–MS); details: 2 µM
[10] = The drug is tested on Bacteroides fragilis strain: HMW610 for biotransformation. The drug concentrations were measured before and after a 12-h incubation by liquid-chromatography-coupled mass spectrometry (LC–MS); details: 2 µM
[11] = bacteroides fragilis, 12 h, 2 µM
Description: The drug is tested on Bacteroides fragilis strain: DS-208 for biotransformation. The drug concentrations were measured before and after a 12-h incubation by liquid-chromatography-coupled mass spectrometry (LC–MS)

[12] = anaerostipes sp., 12 h, 2 µM
Description: The drug is tested on Anaerostipes sp. strain: fecal isolate for biotransformation. The drug concentrations were measured before and after a 12-h incubation by liquid-chromatography-coupled mass spectrometry (LC–MS)

[13] = akkermansia muciniphila, 12 h, 2 µM
Description: The drug is tested on Akkermansia muciniphila strain: ATCC BAA-835 for biotransformation. The drug concentrations were measured before and after a 12-h incubation by liquid-chromatography-coupled mass spectrometry (LC–MS)

[14] = The drug is tested on Blautia luti strain: DSM14534 for biotransformation. The drug concentrations were measured before and after a 12-h incubation by liquid-chromatography-coupled mass spectrometry (LC–MS); type: ADME; set-up: dose 2 uM, timepoint 0 vs 12 hours; details: 2 µM
[15] = The drug is tested on Clostridium sp. strain: fecal isolate for biotransformation. The drug concentrations were measured before and after a 12-h incubation by liquid-chromatography-coupled mass spectrometry (LC–MS); details: 2 µM
[16] = The drug is tested on Ruminococcus lactaris strain: ATCC29176 for biotransformation. The drug concentrations were measured before and after a 12-h incubation by liquid-chromatography-coupled mass spectrometry (LC–MS); details: 2 µM
[17] = bacteroides eggerthii, 12 h, 2 µM
Description: The drug is tested on Bacteroides eggerthii strain: DSM20697 for biotransformation. The drug concentrations were measured before and after a 12-h incubation by liquid-chromatography-coupled mass spectrometry (LC–MS)

[18] = The drug is tested on Subdoligranulum variabile strain: DSM15176 for biotransformation. The drug concentrations were measured before and after a 12-h incubation by liquid-chromatography-coupled mass spectrometry (LC–MS); details: 2 µM
[19] = The drug is tested on Bacteroides cellulosilyticus strain: DSM14838 for biotransformation. The drug concentrations were measured before and after a 12-h incubation by liquid-chromatography-coupled mass spectrometry (LC–MS); details: 2 µM
[20] = The drug is tested on Providencia rettgeri strain: DSM1131 for biotransformation. The drug concentrations were measured before and after a 12-h incubation by liquid-chromatography-coupled mass spectrometry (LC–MS); type: ADME; set-up: dose 2 uM, timepoint 0 vs 12 hours; details: 2 µM

Row | SMILES | Bacterial Biotransformation [1] | Bacterial Biotransformation [2] | Bacterial Biotransformation [3] | Bacterial Biotransformation [4] | Bacterial Biotransformation [5] | Bacterial Biotransformation [6] | Bacterial Biotransformation [7] | Bacterial Biotransformation [8] | Bacterial Biotransformation [9] | Bacterial Biotransformation [10] | Bacterial Biotransformation [11] | Bacterial Biotransformation [12] | Bacterial Biotransformation [13] | Bacterial Biotransformation [14] | Bacterial Biotransformation [15] | Bacterial Biotransformation [16] | Bacterial Biotransformation [17] | Bacterial Biotransformation [18] | Bacterial Biotransformation [19] | Bacterial Biotransformation [20]
1 | CC1=C(CC(=O)O)c2cc(F)ccc2/C1=C\c1ccc([S+](C)[O-])cc1 (configuration not stated) | Compound NOT metabolized | Compound NOT metabolized | Compound NOT metabolized | Compound NOT metabolized | Compound NOT metabolized | Compound NOT metabolized | Compound NOT metabolized | Compound NOT metabolized | Compound NOT metabolized | Compound NOT metabolized | Compound NOT metabolized | Compound NOT metabolized | Compound NOT metabolized | Compound NOT metabolized | Compound NOT metabolized | Compound NOT metabolized | Compound NOT metabolized | Compound NOT metabolized | Compound NOT metabolized | –
2 | C[C@]12CCC(=O)C=C1[C@@H]1C[C@@H]1[C@H]1[C@@H]3[C@@H]4C[C@@H]4[C@@]4(CCC(=O)O4)[C@@]3(C)CC[C@@H]12 [DROSPIRENONE] | Compound NOT metabolized | Compound NOT metabolized | Compound NOT metabolized | Compound NOT metabolized | Compound metabolized | – | Compound metabolized | – | Compound metabolized | Compound metabolized | Compound NOT metabolized | Compound NOT metabolized | Compound NOT metabolized | Compound NOT metabolized | Compound NOT metabolized | Compound NOT metabolized | Compound NOT metabolized | Compound NOT metabolized | Compound NOT metabolized | –
3 | C[C@@H](CO)NC(=O)[C@@H]1C=C2c3cccc4[nH]cc(c34)C[C@H]2N(C)C1.O=C(O)/C=C\C(=O)O [ERGONOVINE MALEATE] | Compound NOT metabolized | – | Compound metabolized | Compound metabolized | Compound metabolized | Compound metabolized | Compound metabolized | Compound NOT metabolized | Compound metabolized | Compound metabolized | Compound metabolized | Compound NOT metabolized | Compound NOT metabolized | Compound NOT metabolized | – | Compound metabolized | – | Compound NOT metabolized | Compound metabolized | Compound NOT metabolized
4 | C#C[C@]1(OC(C)=O)CC[C@H]2[C@@H]3CCC4=C[C@@H](OC(C)=O)CC[C@@H]4[C@H]3CC[C@@]21C [ETHYNODIOL DIACETATE] | Compound NOT metabolized | Compound NOT metabolized | Compound NOT metabolized | Compound NOT metabolized | Compound NOT metabolized | Compound NOT metabolized | – | Compound NOT metabolized | Compound NOT metabolized | – | Compound NOT metabolized | Compound NOT metabolized | Compound NOT metabolized | – | Compound NOT metabolized | Compound NOT metabolized | Compound NOT metabolized | Compound NOT metabolized | Compound NOT metabolized | Compound NOT metabolized
5 | Nc1nc2ccc(OC(F)(F)F)cc2s1 [RILUZOLE] | Compound metabolized | Compound metabolized | Compound NOT metabolized | Compound NOT metabolized | Compound NOT metabolized | Compound metabolized | Compound NOT metabolized | Compound NOT metabolized | Compound metabolized | Compound metabolized | Compound metabolized | Compound NOT metabolized | Compound NOT metabolized | – | Compound metabolized | Compound NOT metabolized | Compound metabolized | Compound NOT metabolized | Compound NOT metabolized | –
6 | CCCc1nn(C)c2c(=O)[nH]c(-c3cc(S(=O)(=O)N4CCN(C)CC4)ccc3OCC)nc12.O=C(O)CC(O)(CC(=O)O)C(=O)O [SILDENAFIL CITRATE] | Compound NOT metabolized | Compound NOT metabolized | Compound metabolized | Compound NOT metabolized | Compound NOT metabolized | Compound NOT metabolized | Compound NOT metabolized | Compound NOT metabolized | Compound NOT metabolized | – | Compound NOT metabolized | Compound NOT metabolized | Compound NOT metabolized | Compound NOT metabolized | Compound metabolized | Compound NOT metabolized | Compound NOT metabolized | Compound NOT metabolized | Compound NOT metabolized | –
7 | CCCCCNC(=N)N/N=C/c1c[nH]c2ccc(OC)cc12.O=C(O)/C=C\C(=O)O [TEGASEROD MALEATE] | Compound NOT metabolized | Compound NOT metabolized | Compound NOT metabolized | Compound NOT metabolized | Compound NOT metabolized | Compound NOT metabolized | Compound NOT metabolized | Compound NOT metabolized | Compound NOT metabolized | Compound NOT metabolized | Compound NOT metabolized | Compound NOT metabolized | Compound NOT metabolized | Compound NOT metabolized | Compound NOT metabolized | Compound NOT metabolized | Compound NOT metabolized | Compound NOT metabolized | Compound NOT metabolized | –
8 | COc1cc(C(=O)NCc2ccc(OCCN(C)C)cc2)cc(OC)c1OC [TRIMETHOBENZAMIDE] | Compound NOT metabolized | Compound NOT metabolized | Compound NOT metabolized | – | Compound NOT metabolized | Compound NOT metabolized | Compound NOT metabolized | Compound NOT metabolized | Compound NOT metabolized | Compound NOT metabolized | Compound NOT metabolized | Compound NOT metabolized | Compound NOT metabolized | Compound NOT metabolized | Compound NOT metabolized | Compound NOT metabolized | Compound NOT metabolized | Compound NOT metabolized | Compound NOT metabolized | –
9 | N#Cc1ccc2[nH]cc(CCCCN3CCN(c4ccc5oc(C(N)=O)cc5c4)CC3)c2c1 [VILAZODONE] | Compound metabolized | Compound metabolized | Compound NOT metabolized | Compound NOT metabolized | Compound metabolized | Compound metabolized | Compound metabolized | Compound NOT metabolized | Compound metabolized | Compound metabolized | Compound metabolized | Compound NOT metabolized | Compound NOT metabolized | Compound NOT metabolized | Compound NOT metabolized | Compound NOT metabolized | Compound metabolized | Compound NOT metabolized | Compound metabolized | –
